The conditions of this series: Crystal; Adiabatic calorimetry.

± gives the expanded uncertainty stated by the source.

Turning to `CCCC[n+]1ccn(C)c1.O=S(=O)([N-]S(=O)(=O)C(F)(F)F)C(F)(F)F`, the Triple point temperature was 270.22 ± 0.05 K.

The values above are taken from the NIST ThermoML archive (doi:10.1016/j.tca.2006.02.034).
